Read-outs that look alike come from different tables or passages of the source.
Tests used:
Assay type in all cases: cell-based, human
[1] = system: AsPC-1 cells (KRAS G12D mutation); test: 3D cell proliferation assay (CellTiter Glo-3D), AsPC-1; details: medium with 2% FBS, read-out: AsPC-1 AP IC50
How it was run: (§1)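 Luminescent CellTiter-Glo 3D readout after 5-day compound exposure (3.16-fold series, 0.1% DMSO, 2% FBS medium) at 37°C on 800 cells/well plated the day before; IC50 from four-parameter curve of inhibition relative to DMSO and blank wells.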

[2] = system: p-ERK in AsPC-1 cells (KRAS G12D mutation); test: Cell p-ERK assay (HTRF) in AsPC-1 cells; details: AsPC-1 cells, 3 h compound incubation, HTRF p-ERK T202/Y204, read-out: AsPC-1 p-ERK IC50
How it was run: (§2)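 Seed 10000 AsPC-1 or 20000 NCI-H441 cells/well, overnight 37 °C/5% CO2. Cpd 3.16-fold series, 0.1% DMSO final, 3 h. Lyse 30 min, HTRF p-ERK (T202/Y204) Ab 4 h. IC50: 4-parameter fit of IR% normalised to DMSO and blank.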

[3] = system: p-ERK in NCI-H441 cells (KRAS G12V mutation); test: Cell p-ERK assay (HTRF) in NCI-H441 cells; details: NCI-H441 cells, 3 h compound incubation, HTRF p-ERK T202/Y204, read-out: H441 p-ERK IC50
How it was run: as §2

NCI-H441 cells = test: 3D cell proliferation assay (CellTiter Glo-3D), NCI-H441; details: medium with 2% FBS, read-out: H441 AP IC50
How it was run: as §1

[4] = 3D cell proliferation (CellTiter Glo-3D)
[5] = Homo sapiens, ASPC1, 3D cell proliferation (CellTiter Glo-3D)
[6] = Homo sapiens, NCI-H441, 3D cell proliferation (CellTiter Glo-3D)

| IC50 [1, 4] [nM] | IC50 [2] [nM] | IC50 [3] [nM] | IC50 (NCI-H441 cells; [4]) [nM] | IC50 [1, 5] [nM] | IC50 ([2]; Homo sapiens, ASPC1, 3 h) [nM] | IC50 ([3]; Homo sapiens, NCI-H441, 3 h) [nM] | IC50 (NCI-H441 cells; [6]) [nM] | Structure (SMILES) |
| --- | --- | --- | --- | --- | --- | --- | --- | --- |
| 0.24 | 0.19 | 0.27 | 0.11 |  |  |  |  | CCn1c(-c2cc(C#CCN3CCCOCC3)c[n+]([O-])c2[C@H](C)OC)c2c3cc(ccc31)-c1csc(n1)C[C@H](NC(=O)[C@H]1[C@H](C)[C@@H]1C)C(=O)N1CCC[C@H](N1)C(=O)OCC(C)(C)C2 (atropisomer, axis not shown; (Ra)) [Compound Z914-1, 5-(3-(1,4-oxazepan-4-yl)prop-1-yn-1-yl)-(Ra)-3-((6^3S,4S,Z)-4-((1r,2R,3S)-2,3-dimethylcyclopropane-1-carboxamido)-1^1-ethyl-10,10-dimethyl-5,7-dioxo-6^1,6^2,6^3,6^4,6^5,6^6-hexahydro-1^1H-8-oxa-2(4,2)-thiazola-1(5,3)-indola-6(1,3)-pyridazinacycloundecaphane-12-yl)-2-((S)-1-methoxyethyl)pyridine-1-oxide] |
|  |  |  |  | 12.6 | 10.1 | 11.7 | 7.54 | CCn1c(-c2cc(OCCN3CCC4(CC4)C3)cnc2[C@H](C)OC)c2c3cc(ccc31)-c1csc(n1)C[C@H](NC(=O)[C@H]1[C@H](C)[C@@H]1C)C(=O)N1CCC[C@H](N1)C(=O)OCC1(CC1)C2 [Compound Z415, (1r,2R,3S)—N-((3′S,4′S,Z)-2′-(5-(2-(5-azaspiro[2.4]heptan-5-yl)ethoxy)-2-((S)-1-methoxyethyl)pyridin-3-yl)-1′-ethyl-5′,7′-dioxaspiro[cyclopropane-1,10′-8-oxa-2(4,2)-thiazola-1(5,3)-indola-6(1,3)-pyridazinacycloundecaphan]-4′-yl)-2,3-dimethylcyclopropane-1-carboxamide] |
|  |  |  |  | 1.28 | 0.95 | 0.51 | 1.21 | CCn1c(-c2cc(C#CCN3CCCOCC3)c[n+]([O-])c2[C@H](C)O)c2c3cc(ccc31)-c1csc(n1)C[C@H](NC(=O)[C@H]1[C@H](C)[C@@H]1C)C(=O)N1CCC[C@H](N1)C(=O)OCC(C)(C)C2 (single isomer, unassigned) [Compound Z1039] |
| 6.52 | 4.13 | 1.7 | 4.73 |  |  |  |  | CCn1c(-c2cc(C#C[C@@H]3CCCN3C)cnc2[C@H](C)OC)c2c3cc(ccc31)-c1csc(n1)C[C@H](NC(=O)[C@H]1[C@H](C)[C@@H]1C)C(=O)N1CCC[C@H](N1)C(=O)OCC(C)(C)C2 (single isomer, unassigned) [Compound Z598A] |
| 0.58 |  |  | 0.26 |  | 0.25 | 0.46 |  | CCn1c(-c2cc(C#CCN3CCCOCC3)c[n+]([O-])c2[C@H](C)OC)c2c3cc(ccc31)-c1csc(n1)C[C@H](NC(=O)[C@H]1[C@H](C)[C@@H]1C)C(=O)N1CCC[C@H](N1)C(=O)OCC(C)(C)C2 [Compound Z914, 5-(3-(1,4-oxazepan-4-yl)prop-1-yn-1-yl)-3-((6^3S,4S,Z)-4-((r,2R,3S)-2,3-dimethylcyclopropane-1-carboxamido)-1^1-ethyl-10,10-dimethyl-5,7-dioxo-6^1,6^2,6^3,6^4,6^5,6^6-hexahydro-1^1H-8-oxa-2(4,2)-thiazola-1(5,3)-indola-6(1.3)-pyridazinacycloundecaphane-1^2-yl)-2-((S)-1-methoxyethyl)pyridine-1-oxide] |
| 51.9 | 15.7 | 8.74 | 23.1 |  |  |  |  | CCn1c(-c2cc(OCC3(N4CCCOCC4)CC3)cnc2[C@H](C)OC)c2c3cc(ccc31)-c1csc(n1)C[C@H](NC(=O)[C@H]1[C@H](C)[C@@H]1C)C(=O)N1CCC[C@H](N1)C(=O)OCC1(CC1)C2 [Compound Z329, (1r,2R,3S)—N-((3′S,4′S,Z)-2′-(5-((1-(1,4-oxazepan-4-yl)cyclopropyl)methoxy)-2-((S)-1-methoxyethyl)pyridin-3-yl)-1′-ethyl-5′,7′-dioxospiro[cyclopropane-1,10′-8-oxa-2(4,2)-thiazola-1(5,3)-indola-6(1,3)-pyridazinacycloundecaphan]-4′-yl)-2,3-dimethylcyclopropane-1-carboxamide] |
| 2.07 | 2.89 | 1.22 | 1.54 |  |  |  |  | CCn1c(-c2cc(C#CCN3CC[C@H](C#N)C3)cnc2[C@H](C)OC)c2c3cc(ccc31)-c1csc(n1)C[C@H](Nc1nnc3cc(C)ccn13)C(=O)N1CCC[C@H](N1)C(=O)OCC(C)(C)C2 (atropisomer, axis not shown; (Ra)) [Compound Z1011, (3S)-1-(3-(5-((6^3S,4S,Z)—(Ra)-1^1-ethyl-10,10-dimethyl-4-((7-methyl-[1,2,4]triazolo[4,3-a]pyridin-3-yl)amino)-5,7-dioxo-6^1,6^2,6^3,6^4,6^5,6^6-hexahydro-1^1H-8-oxa-2(4,2)-thiazola-1(5,3)-indola-6(1,3)-pyridazinacycloundecaphane-1-yl)-6-((S)-1-methoxyethyl)pyridin-3-yl)prop-2-yn-1-yl)pyrrolidine-3-carbonitrile] |
| 2.4 | 1.45 | 1.14 | 1 |  |  |  |  | CCn1c(-c2cc(CCN3CCS(=O)(=O)CC3)cnc2[C@H](C)OC)c2c3cc(ccc31)-c1csc(n1)C[C@H](NC(=O)[C@H]1[C@H](C)[C@@H]1C)C(=O)N1CCC[C@H](N1)C(=O)OCC(C)(C)C2 [Compound Z485A, (1r,2R,3S)—N-((6^3S,4S,Z)-1^2-(5-(2-(1,1-dioxidothiomorpholino)ethyl)-2-((S)-1-methoxyethyl)pyridin-3-yl)-1-ethyl-10,10-dimethyl-5,7-dioxo-6^1,6^2,6^3,6^4,6^5,6^6-hexahydro-1^1H-8-oxa-2(4,2)-thiazola-1(5,3)-indola-6(1,3)-pyridazinacycloundecaphane-4-yl)-2,3-dimethylcyclopropane-1-carboxamide] |
|  |  |  |  | 8.99 | 10.9 | 4.06 | 5.58 | CCn1c(-c2cc(OCC3(CN4CCCOCC4)CC3)cnc2[C@H](C)OC)c2c3cc(ccc31)-c1csc(n1)C[C@H](NC(=O)[C@H]1[C@H](C)[C@@H]1C)C(=O)N1CCC[C@H](N1)C(=O)OCC1(CC1)C2 (atropisomer, axis not shown; (Ra)) [Compound Z498] |
|  |  |  |  | 0.08 | 0.18 | 0.25 | 0.13 | CCn1c(-c2cc(C#CCN3CCS(=N)(=O)CC3)cnc2[C@H](C)OC)c2c3cc(ccc31)-c1csc(n1)C[C@H](NC(=O)[C@H]1[C@H](C)[C@@H]1C)C(=O)N1CCC[C@H](N1)C(=O)OCC(C)(C)C2 (atropisomer, axis not shown; (Ra)) [Compound Z850, (1r,2R,3S)—N-((6^3S,4S,Z)-1^1-ethyl-(Ra)-1^2-(5-(3-(1-imino-1-oxo-11^6-thiomorpholino)prop-1-yn-1-yl)-2-((S)-1-methoxyethyl)pyridin-3-yl)-10,10-dimethyl-5,7-dioxo-6^1,6^2,6^3,6^4,6^5,6^6-hexahydro-1^1-8-oxa-2(4,2)-thiazola-1(5,3)-indola-0(1,3)-pyridazinacycloundecaphane-4-yl)-2.3-dimethylcyclopropane-1-carboxamide] |
|  |  |  |  | 0.58 | 0.49 | 0.62 | 0.36 | CCn1c(-c2cc(OCCN3CCS(=O)(=NC)CC3)cnc2[C@H](C)OC)c2c3cc(ccc31)-c1csc(n1)C[C@H](NC(=O)[C@H]1[C@H](C)[C@@H]1C)C(=O)N1CCC[C@H](N1)C(=O)OCC(C)(C)C2 (atropisomer, axis not shown; (Ra)) [Compound Z601, (1r,2R,3S)—N-((6^3S,4S,Z)-1^1-ethyl-1^2-(Ra)-(2-((S)-1-methoxyethyl)-5-(2-(1-(methylimino)-1-oxido-1λ^6-thiomorpholino)ethoxy)pyridin-3-yl)-10-10-dimethyl-5,7-dioxo-6^1,6^2,6^3,6^4,6^5,6^6-hexahydro-1^1H-8-oxa-2(4,2)-thiazola-1(5,3)-indola-6(1,3)-pyridazinacycloundecaphane-4-yl)-2,3-dimethylcyclopropane-1-carboxamide] |
| 20.9 | 2.72 | 4.26 | 5.69 |  |  |  |  | CCn1c(-c2cc(N3CCN(C)CC3)cnc2[C@H](C)OC)c2c3cc(ccc31)-c1csc(n1)C[C@H](NC(=O)C(C)(C)F)C(=O)N1CCC[C@H](N1)C(=O)OCC(C)(C)C2 (atropisomer, axis not shown; (Ra)) [Compound Z66, N-((6^3S,4S,Z)-1^1-ethyl-(Ra)-1^2-(2-((S)-1-methoxyethyl)-5-(4-(methyl-d3)piperazin-1-yl)pyridin-3-yl)-10,10-dimethyl-5,7-dioxa-6^1,6^2,6^3,6^4,6^5,6^6-hexahydro-1^1H-8-oxa-2(4,2)-thiazola-1(5,3)-indola-6(1,3)-pyridazinacycloundecaphane-4-yl)-2-fluoro-2-methylpropanamide] |

Source: patent US20260234165A1, “MACROCYCLIC COMPOUNDS, PREPARATION METHOD THEREFOR, AND USE THEREOF” (GENFLEET THERAPEUTICS (SHANGHAI) INC., priority 2004, published 2026)
